Results published in ChEMBL document CHEMBL3045752, “Sideroxylin and 8-demethylsideroxylin from Eucalyptus saligna (Myrtaceae)” (2001).

What was measured:
Assay type in all cases: functional
Heliothis virescens = test: Antifeedant activity against Heliothis virescens (tobacco budworm) final stadium […] at 100 ppm by glass-fiber choice assay
Spodoptera exigua = test: Antifeedant activity against Spodoptera exigua final stadium […] at 100 ppm by glass-fiber choice assay
Locusta migratoria = test: Antifeedant activity against Locusta migratoria final stadium nymphs at 100 ppm by glass-fiber choice assay

Compound | AFI (Heliothis virescens) | AFI (Spodoptera exigua) | AFI (Locusta migratoria)
COc1cc2oc(-c3ccc(O)cc3)cc(=O)c2c(O)c1C [8-DEMETHYLSIDEROXYLIN] | 7.3% | 8.9% | 1.9%
COc1cc(/C=C/C=O)ccc1O [CONIFERYL ALDEHYDE] | 2.2% | 4% | 4.5%
COc1c(C)c(O)c2c(=O)cc(-c3ccc(O)cc3)oc2c1C [SIDEROXYLIN] | 19.6% | 21.2% | 24.2%
